From US20240083857A1, “2-Methyl-Quinazolines” (Bayer Pharma Aktiengesellschaft, priority 2017, published 2024)

Tests used:
[1] = target: K-Ras^G12C : hSOS1 interaction (Homo sapiens, UniProt Q07889); experiment: Biochemical assay 1: K-Ras^G12C interaction assay with hSOS1 (HTRF); type: binding; conditions: read-out: Assay 1 (KRAS-SOS Interaction) activity expressed as IC50
[2] = target: Epidermal Growth Factor Receptor (EGFR) (Homo sapiens (Human), UniProt P00533); experiment: EGFR kinase assay (TR-FRET); type: biochemical; conditions: values given in μM; read-out: EGFR kinase inhibition IC50
Epidermal Growth Factor Receptor (EGFR), sequence (P00533 25-1210): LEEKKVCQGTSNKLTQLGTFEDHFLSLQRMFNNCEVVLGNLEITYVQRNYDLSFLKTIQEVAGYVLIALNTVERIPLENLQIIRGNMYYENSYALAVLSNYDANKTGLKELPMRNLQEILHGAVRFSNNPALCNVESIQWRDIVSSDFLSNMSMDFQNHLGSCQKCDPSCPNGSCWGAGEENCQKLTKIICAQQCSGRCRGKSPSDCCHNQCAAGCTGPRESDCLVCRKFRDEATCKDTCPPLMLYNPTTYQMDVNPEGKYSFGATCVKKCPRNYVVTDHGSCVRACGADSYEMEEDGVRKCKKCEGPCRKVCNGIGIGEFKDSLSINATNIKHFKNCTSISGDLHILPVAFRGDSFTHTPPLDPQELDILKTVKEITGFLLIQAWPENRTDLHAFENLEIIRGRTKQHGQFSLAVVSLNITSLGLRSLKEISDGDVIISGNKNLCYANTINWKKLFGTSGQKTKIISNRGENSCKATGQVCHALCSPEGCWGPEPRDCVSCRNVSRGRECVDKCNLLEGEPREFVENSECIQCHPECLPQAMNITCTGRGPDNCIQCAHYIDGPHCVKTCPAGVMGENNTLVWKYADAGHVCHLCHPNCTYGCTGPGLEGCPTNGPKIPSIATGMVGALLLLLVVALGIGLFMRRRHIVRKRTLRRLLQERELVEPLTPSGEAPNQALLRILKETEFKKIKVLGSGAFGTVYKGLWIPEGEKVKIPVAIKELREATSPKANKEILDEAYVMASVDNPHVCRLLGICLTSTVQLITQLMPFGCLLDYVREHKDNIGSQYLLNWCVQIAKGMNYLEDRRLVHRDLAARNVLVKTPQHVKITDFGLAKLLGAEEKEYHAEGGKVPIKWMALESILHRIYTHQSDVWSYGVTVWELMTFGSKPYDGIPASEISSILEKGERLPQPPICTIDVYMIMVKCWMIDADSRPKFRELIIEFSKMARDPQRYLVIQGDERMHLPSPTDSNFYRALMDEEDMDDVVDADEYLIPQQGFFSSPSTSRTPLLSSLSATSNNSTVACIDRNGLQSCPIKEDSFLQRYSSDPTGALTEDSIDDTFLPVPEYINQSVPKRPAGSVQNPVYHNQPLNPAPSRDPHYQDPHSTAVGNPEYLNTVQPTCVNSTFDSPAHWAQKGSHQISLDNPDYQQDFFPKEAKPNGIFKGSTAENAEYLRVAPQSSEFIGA
Outline: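 Read-out is the 665/620 nm HTRF ratio, from a Tb-cryptate anti-phosphotyrosine antibody and streptavidin-XL665 bound to phosphorylated biotin-peptide substrate. The enzyme, A431-derived EGFR (~3 U/ml), was given 15 min compound pre-binding at 22° C in Hepes pH 7.0 with Mg2+/Mn2+ before reaction.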

Row | SMILES | IC50 [1] | IC50 [2]
1 | CCCCNCc1ccccc1-c1ccc(C(C)Nc2nc(C)nc3cc(OC)c(OC)cc23)s1 (stereo not shown) [Example 366, N-[1-(5-{2-[(butylamino)methyl]phenyl}thiophen-2-yl)ethyl]-6,7-dimethoxy-2-methylquinazolin-4-amine] | 97.6 nM | > 20 µM
2 | CCNCc1ccccc1-c1ccc(C(C)Nc2nc(C)nc3cc(OC)c(OC)cc23)s1 (stereo not shown) [Example 367, N-[1-(5-{2-[(ethylamino)methyl]phenyl}thiophen-2-yl)ethyl]-6,7-dimethoxy-2-methylquinazolin-4-amine] | 71.6 nM | > 20 µM
